Series [1] deals with Epidermal growth factor receptor (Homo sapiens, UniProt P00533, L858R/T790M). Kind of series: Inhibition of N-terminal GST-tagged human recombinant EGFR T790M/L858R mutant (695 to end residues) expressed in baculovirus-infected Sf9 cells using poly (4:1 Glu,Tyr) peptide as substrate incubated for 60 mins in presence of ATP by ADP-Glo kinase assay. A general note: In ADP-Glo the light output rises with the ADP produced.

Series [2] deals with NCI-H1975. Kind of series: Induction of morphological changes in human NCI-H1975 cells incubated for 48 hrs by AO/EB staining based fluorescence microscopic analysis. The class given is functional, cell-based. The settings on record: dose 1-10 µM, DDE = dose-dependent effect.
Series [3] relates to NCI-H1975. Kind of series: Induction of apoptosis in human NCI-H1975 cells assessed as chromatin shrinkage and accumulation in the nucleus at 1 to 10 uM incubated for 48 hrs by DAPI staining based fluorescence microscopic analysis. The settings on record: dose 1-10 µM. The class given is functional, cell-based.
Series [4] has as its system NCI-H1975. Kind of series: Induction of apoptosis in human NCI-H1975 cells assessed as nuclear fragmentation by measuring breakdown of nucleus into small membrane blebs with compacted DNA at 1 to 10 uM incubated for 48 hrs by DAPI staining based fluorescence microscopic analysis. The class given is functional, cell-based. The settings on record: dose 1-10 µM.
A further series is filed under the species Homo sapiens. Kind of series: Selectivity index, ratio of IC50 for N-terminal GST-tagged human recombinant wild type EGFR (695 to end residues) expressed in baculovirus-infected Sf9 cells to IC50 for N-terminal GST-tagged human recombinant EGFR T790M/L858R mutant (695 to end residues) expressed in baculovirus-infected Sf9 cells. The class given is functional.

Series [5] concerns NCI-H1975. Kind of series: Antiproliferative activity against human NCI-H1975 cells harboring EGFR T790M/L858R mutant assessed as reduction in cell growth incubated for 72 hrs by MTT assay. The class given is functional, cell-based. Conditions: NCI-H1975, 72 h.
For series [6], the system named is NCI-H1975. Kind of series: Inhibition of cell migration in human NCI-H1975 cells incubated for 24 to 48 hrs by scratch wound healing assay. The class given is functional, cell-based. Conditions: dose 0.05-0.5 µM, time 24-48 hrs, DDE = dose-dependent effect.
Series [7] addresses Epidermal growth factor receptor (Homo sapiens, UniProt P00533). Kind of series: Inhibition of N-terminal GST-tagged human recombinant wild type EGFR (695 to end residues) expressed in baculovirus-infected Sf9 cells using poly (4:1 Glu,Tyr) peptide as substrate incubated for 60 mins in presence of ATP by ADP-Glo kinase assay.
The next series concerns SW-620. Kind of series: Antiproliferative activity against human SW620 cells harboring KRAS G12V mutant assessed as reduction in cell growth incubated for 72 hrs by MTT assay. The class given is functional, cell-based. Conditions: SW-620, 72 h.
In series [8] the test system is NCI-H1975. Kind of series: Induction of apoptosis in human NCI-H1975 cells assessed as increase in died cells with few cells containing intact DNA at 10 uM incubated for 48 hrs by DAPI staining based fluorescence microscopic analysis. The class given is functional, cell-based.
The next series concerns ASPC1. Kind of series: Antiproliferative activity against human ASPC1 cells harboring KRAS G12D mutant assessed as reduction in cell growth incubated for 72 hrs by MTT assay. The class given is functional, cell-based. Conditions: ASPC1, 72 h. On the technique in general: Tetrazolium dyes change colour on reduction, which living cells bring about.
A short description of series [9]: Selectivity index, ratio of IC50 for cytotoxicity against human HBE cells to IC50 for cytotoxicity against human NCI-H1975 cells harboring EGFR T790M/L858R mutant. The class given is toxicity, cell-based. Conditions: read-out: Ratio IC50.
Another series deals with NCI-H358. Kind of series: Antiproliferative activity against human NCI-H358 cells harboring KRAS G12C mutant assessed as reduction in cell growth incubated for 72 hrs by MTT assay. The class given is functional, cell-based. The settings on record: NCI-H358, 72 h.
The test system of series [10] is NCI-H1975. Kind of series: Induction of apoptosis in human NCI-H1975 cells assessed as increase in number of nonviable apoptotic cells at 5 to 10 uM incubated for 48 hrs by AO/EB staining based fluorescence microscopic analysis. The class given is functional, cell-based. Conditions: dose 5-10 µM.
The nature of series [11]: Cytotoxicity against human HBE cells assessed as reduction in cell viability incubated for 72 hrs by MTT assay. The class given is toxicity, cell-based, Epithelial cell.
Series [12] has as its system NCI-H1975. Kind of series: Inhibition of cell migration in human NCI-H1975 cells at 0.05 to 0.5 uM by scratch wound healing assay. The class given is functional, cell-based. The settings on record: dose 0.05-0.5 µM, time 24-48 hrs, TDE = time-dependent effect.
The nature of series [13]: Cytotoxicity against human L02 cells assessed as reduction in cell viability incubated for 72 hrs by MTT assay. The class given is toxicity, cell-based.
Series [14] in a line: Cytotoxicity against human A-431 cells harboring wild type EGFR assessed as reduction in cell viability incubated for 72 hrs by MTT assay. The class given is toxicity, cell-based.
A short description of series [15]: Selectivity index, ratio of IC50 for cytotoxicity against human L02 cells to IC50 for cytotoxicity against human NCI-H1975 cells harboring EGFR T790M/L858R mutant. The class given is toxicity, cell-based. The settings on record: read-out: Ratio IC50.

pIC50: −log10 of the molar value. Calls of active or inactive are those of the source. The calls are words filed in the database; no cut-off is given here.

Data on one molecule can be found in ChEMBL document CHEMBL5096223, “Design, synthesis, and biological evaluation of 2-arylamino-4-(piperidin-4-yloxy)pyrimidines as potent EGFRT790M/L858R inhibitors to treat non-small cell lung cancer” (Bioorg Med Chem, 2022).

Chain of Epidermal growth factor receptor (Homo sapiens, UniProt P00533) (P00533 whole entry): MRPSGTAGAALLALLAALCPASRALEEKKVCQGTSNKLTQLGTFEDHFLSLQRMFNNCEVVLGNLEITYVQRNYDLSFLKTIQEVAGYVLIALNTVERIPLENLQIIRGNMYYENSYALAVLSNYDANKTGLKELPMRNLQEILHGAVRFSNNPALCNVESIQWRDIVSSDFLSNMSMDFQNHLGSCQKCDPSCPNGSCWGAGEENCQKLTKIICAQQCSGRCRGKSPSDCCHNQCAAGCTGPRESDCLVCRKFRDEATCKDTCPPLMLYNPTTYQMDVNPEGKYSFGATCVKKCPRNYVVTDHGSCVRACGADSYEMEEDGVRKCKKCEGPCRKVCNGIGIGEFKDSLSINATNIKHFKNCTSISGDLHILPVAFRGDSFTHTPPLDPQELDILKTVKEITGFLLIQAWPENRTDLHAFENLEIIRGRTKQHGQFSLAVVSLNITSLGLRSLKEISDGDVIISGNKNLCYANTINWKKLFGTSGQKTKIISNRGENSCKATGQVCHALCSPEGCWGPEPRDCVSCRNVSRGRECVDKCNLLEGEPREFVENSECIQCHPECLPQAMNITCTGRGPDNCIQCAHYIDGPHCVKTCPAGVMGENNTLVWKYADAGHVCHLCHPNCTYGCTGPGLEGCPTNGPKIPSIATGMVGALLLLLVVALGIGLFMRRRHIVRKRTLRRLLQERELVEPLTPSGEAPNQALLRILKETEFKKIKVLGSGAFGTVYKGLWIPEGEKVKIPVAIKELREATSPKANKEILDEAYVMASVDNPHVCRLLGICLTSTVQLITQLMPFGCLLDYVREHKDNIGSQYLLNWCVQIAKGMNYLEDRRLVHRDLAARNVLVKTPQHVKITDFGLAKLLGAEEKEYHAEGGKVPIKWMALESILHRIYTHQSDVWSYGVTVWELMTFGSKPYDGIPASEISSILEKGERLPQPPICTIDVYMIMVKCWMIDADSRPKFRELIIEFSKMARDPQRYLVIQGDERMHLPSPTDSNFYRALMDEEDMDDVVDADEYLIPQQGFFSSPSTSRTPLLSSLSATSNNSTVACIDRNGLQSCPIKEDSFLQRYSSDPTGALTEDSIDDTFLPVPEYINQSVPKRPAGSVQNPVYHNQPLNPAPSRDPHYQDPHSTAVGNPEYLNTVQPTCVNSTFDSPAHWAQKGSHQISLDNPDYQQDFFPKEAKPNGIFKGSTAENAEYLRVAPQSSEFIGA
Chain of Epidermal growth factor receptor (Homo sapiens, UniProt P00533, L858R/T790M) (P00533 25-1210 T790M/L858R limits assumed): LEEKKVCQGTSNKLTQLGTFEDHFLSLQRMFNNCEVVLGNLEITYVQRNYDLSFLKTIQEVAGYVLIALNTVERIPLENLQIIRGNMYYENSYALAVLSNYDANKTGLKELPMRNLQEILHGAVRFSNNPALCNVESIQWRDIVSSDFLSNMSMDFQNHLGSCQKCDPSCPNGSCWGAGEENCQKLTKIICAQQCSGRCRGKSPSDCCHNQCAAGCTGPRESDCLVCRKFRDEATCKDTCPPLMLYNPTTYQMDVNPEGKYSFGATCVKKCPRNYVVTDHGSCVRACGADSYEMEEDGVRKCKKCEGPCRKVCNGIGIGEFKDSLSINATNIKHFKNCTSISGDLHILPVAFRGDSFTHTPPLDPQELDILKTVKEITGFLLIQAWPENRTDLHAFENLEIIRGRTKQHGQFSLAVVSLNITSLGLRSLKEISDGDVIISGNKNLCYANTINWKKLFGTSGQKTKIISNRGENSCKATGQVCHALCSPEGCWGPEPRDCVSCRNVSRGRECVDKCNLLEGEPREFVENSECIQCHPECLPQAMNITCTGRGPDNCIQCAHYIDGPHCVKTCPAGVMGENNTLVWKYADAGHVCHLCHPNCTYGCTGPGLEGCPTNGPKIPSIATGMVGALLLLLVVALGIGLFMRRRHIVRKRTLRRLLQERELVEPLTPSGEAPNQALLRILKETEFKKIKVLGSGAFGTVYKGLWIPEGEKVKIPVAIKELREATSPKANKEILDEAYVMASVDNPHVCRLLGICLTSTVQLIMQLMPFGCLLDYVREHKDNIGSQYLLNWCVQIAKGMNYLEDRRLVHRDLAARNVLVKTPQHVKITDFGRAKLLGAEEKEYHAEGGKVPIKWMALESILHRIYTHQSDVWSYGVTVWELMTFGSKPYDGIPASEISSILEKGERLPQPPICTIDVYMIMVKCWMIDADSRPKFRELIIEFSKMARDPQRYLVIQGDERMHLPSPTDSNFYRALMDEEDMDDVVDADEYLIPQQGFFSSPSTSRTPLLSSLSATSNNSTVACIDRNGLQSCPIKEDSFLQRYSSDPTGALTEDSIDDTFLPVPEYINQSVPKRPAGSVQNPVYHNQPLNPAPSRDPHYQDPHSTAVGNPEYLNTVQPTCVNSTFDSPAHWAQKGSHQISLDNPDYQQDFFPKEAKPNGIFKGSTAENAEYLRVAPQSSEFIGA

For orientation: pIC50 means the IC50 on a negative log10 scale, so that one unit is a factor of ten. As a reminder, the IC50 is the concentration at which inhibition is half-maximal. As for `C=CC(=O)N1CCC(Oc2nc(Nc3ccc(N4CCN(C)CC4)cc3)nc3ccsc23)CC1`, the pIC50 is 8.31 in [1]; 6.21 in the series on NCI-H1975 [5]; 6.44 in series [7]; 5.13 in the series on SW-620; 5.27 in the series with ASPC1; 4.72 in the series on NCI-H358. For the same molecule, in the series on NCI-H1975 [2], the Activity result was “Dde”. Also, the result in the series with NCI-H1975 [3], in the series on NCI-H1975 [4], in the series with NCI-H1975 [8] and in the series on NCI-H1975 [10] was Active. The Ratio IC50 in the series listed under Homo sapiens came to 73.3. Besides, the inhibition entry in the series on NCI-H1975 [6] was “Dde”; with NCI-H1975 [12], “Tde”. Besides, the selectivity ratio in series [9] and in series [15] was 13 each time. For the same molecule, the IC50 at 72 h in [11] was determined as 9.05 µM; in series [13], 8.45 µM; in [14], 4.18 µM.
